“And” between values parts separate entries of the source, which are not always exact repeats. Identical values can stand only once. Toxic doses and inconclusive results are not listed. Rule as the data show it: active = T/C of 150% or more; inactive = T/C below 125%.
Test system: L1210 leukemia ip in BDF1 mice, survival T/C
Assay: NCI In Vivo Anticancer Drug Screen. Data for tumor model L1210 Leukemia (intraperitoneal) in B6D2F1 (BDF1) mice
Details: endpoint: mean survival time, higher = longer survival
In short: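 Transplanted-tumor mice were given test agent; controls received vehicle only. Survival readings from the two groups were divided (treated over control).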

[1] = dose: 50.0 mg/kg/injection, schedule: Q01DX009 (ip), vehicle: Klucel (hydroxypropylcellulose) (HPC)
[2] = dose: 100.0 mg/kg/injection, schedule: Q01DX009 (ip), vehicle: Klucel (hydroxypropylcellulose) (HPC)
[3] = dose: 400.0 mg/kg/injection, schedule: Q01DX009 (ip), vehicle: Klucel (hydroxypropylcellulose) (HPC)
[4] = dose: 25.0 mg/kg/injection, schedule: Q01DX009 (ip), vehicle: saline with Tween-80
[5] = dose: 50.0 mg/kg/injection, schedule: Q01DX009 (ip), vehicle: saline with Tween-80
[6] = dose: 200.0 mg/kg/injection, schedule: Q01DX009 (ip), vehicle: Klucel (hydroxypropylcellulose) (HPC)
[7] = dose: 100.0 mg/kg/injection, schedule: Q04DX003 (ip), vehicle: Klucel (hydroxypropylcellulose) (HPC)
[8] = dose: 200.0 mg/kg/injection, schedule: Q04DX003 (ip), vehicle: Klucel (hydroxypropylcellulose) (HPC)
[9] = dose: 400.0 mg/kg/injection, schedule: Q04DX003 (ip), vehicle: Klucel (hydroxypropylcellulose) (HPC)
[10] = dose: 100.0 mg/kg/injection, schedule: Q01DX001 (ip), vehicle: saline
[11] = dose: 200.0 mg/kg/injection, schedule: Q01DX001 (ip), vehicle: saline
[12] = dose: 400.0 mg/kg/injection, schedule: Q01DX001 (ip), vehicle: saline
[13] = dose: 100.0 mg/kg/injection, schedule: Q01DX009 (ip), vehicle: saline with Tween-80
[14] = dose: 200.0 mg/kg/injection, schedule: Q01DX009 (ip), vehicle: saline with Tween-80
[15] = dose: 200.0 mg/kg/injection, schedule: Q04DX003 (ip), vehicle: saline with Tween-80
[16] = dose: 400.0 mg/kg/injection, schedule: Q01DX009 (ip), vehicle: saline with Tween-80

Measured: T/C

CN(Cc1ccc(Cl)cc1)C(=O)Nc1cccc(C(F)(F)F)c1
inactive: dose: 25.0 mg/kg/injection, schedule: Q01DX009 (ip), vehicle: Klucel (hydroxypropylcellulose) (HPC) 96 % of control | [1] 100 % of control | [2] 100 % of control and 90 % of control | [3] 88 % of control

NC(=S)N/N=C/c1cccc(CC(O)(C(F)(F)F)C(F)(F)F)n1
inactive: dose: 12.5 mg/kg/injection, schedule: Q01DX009 (ip), vehicle: saline with Tween-80 97 % of control | [4] 95 % of control | [5] 93 % of control

CN(C(=O)Nc1ccc(Cl)cc1[N+](=O)[O-])C1CCCCC1
inactive: [2] 92 % of control | [6] 94 % of control | [3] 97 % of control

CCCCCCOc1ccc(C=Nc2ccc(C)cc2)cc1
inactive: [7] 97 % of control | [8] 103 % of control | [9] 101 % of control

CCCCN(Cc1ccccc1)C(=O)NC(C)(C)C
inactive: [2] 97 % of control | [6] 102 % of control | [3] 97 % of control

COc1ccc(/C=C/C(=O)c2ccccc2)cc1OC
inactive: [1] 92 % of control and 103 % of control | [2] 105 % of control and 108 % of control | [7] 104 % of control | dose: 100.0 mg/kg/injection, schedule: Q04DX003 (ip), vehicle: water 93 % of control | [6] 99 % of control and 95 % of control | [8] 98 % of control | dose: 200.0 mg/kg/injection, schedule: Q04DX003 (ip), vehicle: water 102 % of control | [3] 93 % of control | [9] 91 % of control | dose: 400.0 mg/kg/injection, schedule: Q04DX003 (ip), vehicle: water 96 % of control

Cl[C](Cl)(Cl)[Hg][c]1ccccc1
inactive: dose: 3.0 mg/kg/injection, schedule: Q01DX009 (ip), vehicle: Klucel (hydroxypropylcellulose) (HPC) 88 % of control | dose: 6.0 mg/kg/injection, schedule: Q01DX009 (ip), vehicle: Klucel (hydroxypropylcellulose) (HPC) 92 % of control | dose: 12.0 mg/kg/injection, schedule: Q01DX009 (ip), vehicle: Klucel (hydroxypropylcellulose) (HPC) 90 % of control | dose: 12.5 mg/kg/injection, schedule: Q01DX009 (ip), vehicle: Klucel (hydroxypropylcellulose) (HPC) 110 % of control

CC(C)(CN)CCBr
inactive: dose: 50.0 mg/kg/injection, schedule: Q01DX001 (ip), vehicle: saline 95 % of control | [10] 88 % of control | [11] 101 % of control | [12] 92 % of control

Cn1nnnc1N/N=C(\Br)c1ccccc1
inactive: [13] 96 % of control | dose: 100.0 mg/kg/injection, schedule: Q04DX003 (ip), vehicle: saline with Tween-80 104 % of control | [14] 93 % of control | [15] 104 % of control | [16] 95 % of control | dose: 400.0 mg/kg/injection, schedule: Q04DX003 (ip), vehicle: saline with Tween-80 100 % of control

CCN(CC)CCN1C(=O)[C@H]2CC=CC[C@H]2C1=O
inactive: dose: 44.0 mg/kg/injection, schedule: Q01DX Z (ip), vehicle: saline 111 % of control | dose: 66.0 mg/kg/injection, schedule: Q01DX Z (ip), vehicle: saline 100 % of control | dose: 100.0 mg/kg/injection, schedule: Q01DX Z (ip), vehicle: saline 98 % of control

COc1ccc(C(=O)Nc2ccccc2)cc1NC(=O)Nc1ccccc1C(F)(F)F
inactive: [2] 92 % of control | [6] 101 % of control | [3] 95 % of control

O=[N+]([O-])c1ccc(N=C(Cl)N(c2ccccc2)c2ccccc2)cc1
inactive: [10] 101 % of control | [11] 109 % of control | [12] 109 % of control

N#C/C(=C\c1cc(Cl)cc(Cl)c1O)C(/C(C#N)=C/c1cc(Cl)cc(Cl)c1O)c1ccc2c(c1)OCO2 (stereo not drawn)
inactive: [13] 97 % of control | dose: 100.0 mg/kg/injection, schedule: Q04DX003 (ip), vehicle: saline 98 % of control | [14] 94 % of control | [15] 103 % of control | dose: 200.0 mg/kg/injection, schedule: Q04DX003 (ip), vehicle: saline 100 % of control | [16] 89 % of control | dose: 400.0 mg/kg/injection, schedule: Q04DX003 (ip), vehicle: saline 98 % of control

Cc1ccc(S(=O)(=O)OCCCl)cc1
inactive: dose: 100.0 mg/kg/injection, schedule: Q04DX002 (ip), vehicle: saline with Tween-80 98 % of control | dose: 200.0 mg/kg/injection, schedule: Q04DX002 (ip), vehicle: saline with Tween-80 109 % of control

Nc1ncnc2c1ncn2C1SC(CO)C2OC21 (stereo not drawn)
inactive: dose: 25.0 mg/kg/injection, schedule: Q01DX001 (ip), vehicle: carboxymethylcellulose (CMC) 93 % of control | dose: 50.0 mg/kg/injection, schedule: Q01DX001 (ip), vehicle: carboxymethylcellulose (CMC) 96 % of control | dose: 100.0 mg/kg/injection, schedule: Q01DX001 (ip), vehicle: carboxymethylcellulose (CMC) 90 % of control | dose: 200.0 mg/kg/injection, schedule: Q01DX005 (ip), vehicle: saline 94 % of control

Cc1ccc(N(C)C(=O)c2ccccc2S)cc1
inactive: [10] 105 % of control | [11] 105 % of control | [12] 109 % of control

O=C(Nc1cc(C(F)(F)F)ccc1Cl)c1ccc(Cl)cc1Cl
inactive: dose: 100.0 mg/kg/injection, schedule: Q01DX009 (sc), vehicle: olive oil, sesame oil, peanut oil 104 % of control | dose: 100.0 mg/kg/injection, schedule: Q04DX003 (sc), vehicle: olive oil, sesame oil, peanut oil 106 % of control | dose: 200.0 mg/kg/injection, schedule: Q01DX009 (sc), vehicle: olive oil, sesame oil, peanut oil 113 % of control | dose: 200.0 mg/kg/injection, schedule: Q04DX003 (sc), vehicle: olive oil, sesame oil, peanut oil 101 % of control | dose: 400.0 mg/kg/injection, schedule: Q01DX009 (sc), vehicle: olive oil, sesame oil, peanut oil 107 % of control | dose: 400.0 mg/kg/injection, schedule: Q04DX003 (sc), vehicle: olive oil, sesame oil, peanut oil 101 % of control

CCOC(=O)N1C(=O)C2C3CCC(O3)C2C1=O (stereo not drawn)
inactive: [4] 107 % of control | [5] 110 % of control

Cc1nc2ccccc2c(=O)n1NC(=O)c1cc([N+](=O)[O-])cc([N+](=O)[O-])c1
inactive: [13] 90 % of control | [14] 97 % of control | [16] 93 % of control

O=C(O)Cc1cccc(C(=O)O)c1
inactive: [10] 103 % of control | [11] 104 % of control | [12] 115 % of control

COc1c(NC(=O)CC(C)=O)ccc2c(C)cc(=O)n(C)c12
inactive: dose: 50.0 mg/kg/injection, schedule: Q01DX001 (ip), vehicle: Klucel (hydroxypropylcellulose) (HPC) 103 % of control | dose: 100.0 mg/kg/injection, schedule: Q01DX001 (ip), vehicle: Klucel (hydroxypropylcellulose) (HPC) 99 % of control | dose: 200.0 mg/kg/injection, schedule: Q01DX001 (ip), vehicle: Klucel (hydroxypropylcellulose) (HPC) 100 % of control

CCOC(=O)C(=O)c1cnc2c(OC)nn(O)cc1-2
inactive: dose: 12.5 mg/kg/injection, schedule: Q04DX002 (ip), vehicle: saline with Tween-80 102 % of control | dose: 25.0 mg/kg/injection, schedule: Q04DX002 (ip), vehicle: saline with Tween-80 109 % of control | dose: 50.0 mg/kg/injection, schedule: Q04DX002 (ip), vehicle: saline with Tween-80 102 % of control

O=C(COc1ccccc1)Nc1ccc(Cl)cc1
inactive: [2] 89 % of control | [6] 95 % of control | [3] 90 % of control

— PubChem BioAssay AID248 (DTP/NCI, 2004)
